Calls of active or inactive are those of the source. The calls are words filed in the database; no cut-off is given here.
Tests used:
[1] = tested on: Human immunodeficiency virus 1; test: Antiviral activity against HIV1 BH10 in human MT4 cells assessed as inhibition of virus-induced cytopathogenicity after 4 days by MTS method; format: functional, organism-based, Human immunodeficiency virus type 1 BH10; details: Human immunodeficiency virus 1, MT4, 96 h
[2] = Cytotoxicity against human MT4 cells by MTS method; format: cell-based
Yellow fever virus = test: Antiviral activity against Yellow fever virus at 75 uM; format: functional, organism-based
Dengue virus = test: Antiviral activity against Dengue virus at 75 uM; format: functional, organism-based
West Nile virus = test: Antiviral activity against West Nile virus at 75 uM; format: functional, organism-based
L1210 = test: Growth inhibition of mouse L1210 cells; format: functional, cell-based
CCRF S-180 = test: Growth inhibition of mouse S180 cells; format: functional, cell-based
HL-60 = test: Growth inhibition of human HL60 cells; format: functional, cell-based

Structure (SMILES): OC[C@@H]1C=C[C@H](c2scc3c(O)ncnc23)O1
- EC50 [1]: > 100 µM
- CC50 [2]: > 100 µM
- Activity (Yellow fever virus): inactive
- Activity (Dengue virus): inactive
- Activity (West Nile virus): inactive

Structure (SMILES): Cc1cn([C@H]2C[C@H](N=[N+]=[N-])[C@@H](CO)O2)c(=O)[nH]c1=O [ZIDOVUDINE]
- EC50 [1]: 0.009 µM
- CC50 [2]: 61 µM

Structure (SMILES): Nc1ncnc2c([C@H]3C=C[C@@H](CO)O3)scc12
- EC50 [1]: > 7.3 µM
- CC50 [2]: 7.3 µM
- Activity (Yellow fever virus): inactive
- Activity (Dengue virus): inactive
- Activity (West Nile virus): inactive

Structure (SMILES): CSc1ncnc2c([C@H]3C=C[C@@H](CO)O3)scc12
- EC50 [1]: > 70 µM
- CC50 [2]: 70 µM
- Activity (Yellow fever virus): inactive
- Activity (Dengue virus): inactive
- Activity (West Nile virus): inactive

Structure (SMILES): O=c1[nH]cnc2c([C@@H]3O[C@H](CO)[C@@H](O)[C@H]3O)scc12
- EC50 [1]: > 100 µM
- CC50 [2]: > 100 µM
- Activity (Yellow fever virus): inactive
- Activity (Dengue virus): inactive
- Activity (West Nile virus): inactive

Structure (SMILES): OC[C@H]1O[C@@H](c2scc3c(=S)[nH]cnc23)[C@H](O)[C@@H]1O
- EC50 [1]: > 2.9 µM
- CC50 [2]: 2.9 µM
- IC50 (L1210): 17.6 µM
- IC50 (CCRF S-180): 29.1 µM
- IC50 (HL-60): 8.17 µM
- Activity (Yellow fever virus): inactive
- Activity (Dengue virus): inactive
- Activity (West Nile virus): inactive

Structure (SMILES): OC[C@@H]1CC[C@H](c2scc3c(O)ncnc23)O1
- EC50 [1]: > 100 µM
- CC50 [2]: > 100 µM
- Activity (Yellow fever virus): inactive
- Activity (Dengue virus): inactive
- Activity (West Nile virus): inactive

Structure (SMILES): Nc1ncnc2c([C@H]3CC[C@@H](CO)O3)scc12
- EC50 [1]: > 75 µM
- CC50 [2]: > 75 µM
- Activity (Yellow fever virus): inactive
- Activity (Dengue virus): inactive
- Activity (West Nile virus): inactive

From ChEMBL document CHEMBL1153937, “Synthesis and antiviral evaluation of thieno[3,4-d]pyrimidine C-nucleoside analogues of 2',3'-dideoxy- and 2',3'-dideoxy-2',3'-didehydro-adenosine and -inosine” (Bioorg Med Chem, 2009)
